Literature values as cited in patent publication US20260345588A1, “COMBINED AGENTS WITH SYNERGISTIC EFFECTS AGAINST GLIOMAS” (Eberhard Karls Universitaet Tuebingen Medizinische Fakultaet, priority 2023, published 2026).

What was measured:
[1] = tested on: EHMT1; details: EHMT1 peptide
[2] = tested on: EHMT2; details: EHMT2 peptide
[3] = tested on: cellular EHMT2
[4] = tested on: Pim1; details: ATP competitive inhibitor; cell-free assay
[5] = tested on: Pim2; details: Pim1 versus Pim2
[6] = tested on: Pim3; details: Pim1 versus Pim3
[7] = tested on: Fit3; details: in words
[8] = tested on: haspin; details: in words
[9] = use of tideglusib
[10] = tested on: Alzheimer's disease; details: phase-IIa clinical trial; treatment discontinued

Q: With CNCc1cnn(-c2cc(Nc3nc(C)cc(NC)n3)ccc2OC)c1 [EHMT 2-IN-1] as the molecule, how does the IC50 [1] read?
A: < 100 nM

Q: And the IC50 [2]?
A: < 100 nM

Q: And the IC50 [3]?
A: < 100 nM

Q: With CN1CCC(CNc2ccc3ncc(-c4cccc(OC(F)(F)F)c4)n3n2)CC1 [SGI-1776] as the molecule, how does the IC50 [4] read?
A: […]

Q: And the “fold selective versus Pim2” value [5]?
A: […]

Q: What about the “potency to Fit3” value [7] of the same molecule?
A: potent

Q: And the potency to haspin [8]?
A: potent

Q: For O=c1sn(-c2cccc3ccccc23)c(=O)n1Cc1ccccc1 [Tideglusib], which adverse reactions [9] is on record?
A: mild-moderate adverse reactions, which included transient increases in serum creatine kinase, ALT—or gGT—diarrhea, nausea, cough, fatigue, and headache

Q: What about the “clinical efficacy in Alzheimer's disease” value [10] of the same molecule?
A: lack of efficacy

Q: With Cn1nnc2c(C(N)=O)ncn2c1=O [Temozolomide] as the molecule, how does the injection-site reactions (people receiving the solution for infusion) read?
A: injection-site reactions, such as pain, irritation, itching, warmth, swelling and redness, as well as bruising

Q: And the side effects (people treated with temozolomide)?
A: nausea (feeling sick), vomiting, constipation, loss of appetite, alopecia (hair loss), headache, fatigue (tired-ness), convulsions (fits), rash, neutropenia or lymphopenia (low white-blood-cell counts), and thrombocytopenia (low blood platelet counts)
